Source: PubChem BioAssay AID1963843 (Molecular Pharmacology Branch, DTP, NCI, 2024)

Tested on: 616215-338-R-J1-PDC complex spheroid viability
Test: Anticancer human tumor 616215-338-R-J1-PDC patient-derived colon adenocarcinoma cell line growth inhibition [POLQ]
Settings: for IC50: curve of first compound; for viability, T/C: stronger effect = lower value
Procedure, shortened: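 Growth inhibition in 3D: complex spheroids (tumor PDC, HUVEC, MSC) treated with POLQ inhibitor combinations; where Cmax unknown, highest tested concentration 10 microM, except SN-38 at 1 microM.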

[1] = second compound 0.0316 µM, first compound 0.00316 µM
[2] = second compound 0.0316 µM, first compound 0.01 µM
[3] = second compound 0.0316 µM, first compound 0.0316 µM
[4] = second compound 0.0316 µM, first compound 0.1 µM
[5] = second compound 0.0316 µM, first compound 0.316 µM
[6] = second compound 0.0316 µM, first compound 1 µM
[7] = second compound 0.1 µM, first compound 0.00316 µM
[8] = second compound 0.1 µM, first compound 0.01 µM
[9] = second compound 0.1 µM, first compound 0.0316 µM
[10] = second compound 0.1 µM, first compound 0.1 µM
[11] = second compound 0.1 µM, first compound 0.316 µM
[12] = second compound 0.1 µM, first compound 1 µM
[13] = second compound 0.316 µM, first compound 0.00316 µM
[14] = second compound 0.316 µM, first compound 0.01 µM
[15] = second compound 0.316 µM, first compound 0.0316 µM
[16] = second compound 0.316 µM, first compound 0.1 µM
[17] = second compound 0.316 µM, first compound 0.316 µM
[18] = second compound 0.316 µM, first compound 1 µM
[19] = second compound 1 µM, first compound 0.00316 µM
[20] = second compound 1 µM, first compound 0.01 µM
[21] = second compound 1 µM, first compound 0.0316 µM
[22] = second compound 1 µM, first compound 0.1 µM
[23] = second compound 1 µM, first compound 0.316 µM
[24] = second compound 1 µM, first compound 1 µM
[25] = second compound 3.16 µM, first compound 0.00316 µM
[26] = second compound 3.16 µM, first compound 0.01 µM
[27] = second compound 3.16 µM, first compound 0.0316 µM
[28] = second compound 3.16 µM, first compound 0.1 µM
[29] = second compound 3.16 µM, first compound 0.316 µM
[30] = second compound 3.16 µM, first compound 1 µM
[31] = second compound 10 µM, first compound 0.00316 µM
[32] = second compound 10 µM, first compound 0.01 µM
[33] = second compound 10 µM, first compound 0.0316 µM
[34] = second compound 10 µM, first compound 0.1 µM
[35] = second compound 10 µM, first compound 0.316 µM
[36] = second compound 10 µM, first compound 1 µM
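Further: spheroids exposed to compounds for one week before readout.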
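Wherever viability, T/C is given: percent viability relative to DMSO vehicle wells taken as 100%.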

C=CCn1c(=O)c2cnc(Nc3ccc(N4CCN(C)CC4)cc3)nc2n1-c1cccc(C(C)(C)O)n1 + COC1C(OC(N)=O)C(O)C(Oc2ccc3c(O)c(NC(=O)c4ccc(O)c(CC=C(C)C)c4)c(=O)oc3c2C)OC1(C)C
IC50 (second compound 0.0316 µM): > 1000 nM | IC50 (second compound 0.1 µM): > 1000 nM | IC50 (second compound 0.316 µM): > 1000 nM | IC50 (second compound 1 µM): > 1000 nM | IC50 (second compound 3.16 µM): > 1000 nM | IC50 (second compound 10 µM): > 1000 nM | viability, T/C [1]: 102% | viability, T/C [2]: 97.8% | viability, T/C [3]: 97.2% | viability, T/C [4]: 113% | viability, T/C [5]: 97.8% | viability, T/C [6]: 91.8% | viability, T/C [7]: 105% | viability, T/C [8]: 101% | viability, T/C [9]: 89.2% | viability, T/C [10]: 103% | viability, T/C [11]: 95.3% | viability, T/C [12]: 55.8% | viability, T/C [13]: 94.3% | viability, T/C [14]: 106% | viability, T/C [15]: 101% | viability, T/C [16]: 97.8% | viability, T/C [17]: 95.2% | viability, T/C [18]: 59.4% | viability, T/C [19]: 105% | viability, T/C [20]: 94.5% | viability, T/C [21]: 101% | viability, T/C [22]: 103% | viability, T/C [23]: 90.7% | viability, T/C [24]: 61.5% | viability, T/C [25]: 93.8% | viability, T/C [26]: 104% | viability, T/C [27]: 100% | viability, T/C [28]: 98.2% | viability, T/C [29]: 93.9% | viability, T/C [30]: 61.4% | viability, T/C [31]: 105% | viability, T/C [32]: 100% | viability, T/C [33]: 98.3% | viability, T/C [34]: 103% | viability, T/C [35]: 87.7% | viability, T/C [36]: 67.3%

CC[C@@]1(O)C(=O)OCc2c1cc1n(c2=O)Cc2cc3c(CN(C)C)c(O)ccc3nc2-1 + COC1C(OC(N)=O)C(O)C(Oc2ccc3c(O)c(NC(=O)c4ccc(O)c(CC=C(C)C)c4)c(=O)oc3c2C)OC1(C)C
IC50 (second compound 0.0316 µM): > 100 nM | IC50 (second compound 0.1 µM): > 100 nM | IC50 (second compound 0.316 µM): > 100 nM | IC50 (second compound 1 µM): > 100 nM | IC50 (second compound 3.16 µM): > 100 nM | IC50 (second compound 10 µM): > 100 nM | viability, T/C (second compound 0.0316 µM, first compound 0.000316 µM): 99.3% | viability, T/C (second compound 0.0316 µM, first compound 0.001 µM): 97.5% | viability, T/C [1]: 104% | viability, T/C [2]: 97.6% | viability, T/C [3]: 102% | viability, T/C [4]: 81.7% | viability, T/C (second compound 0.1 µM, first compound 0.000316 µM): 99.2% | viability, T/C (second compound 0.1 µM, first compound 0.001 µM): 112% | viability, T/C [7]: 99.5% | viability, T/C [8]: 106% | viability, T/C [9]: 106% | viability, T/C [10]: 78.6% | viability, T/C (second compound 0.316 µM, first compound 0.000316 µM): 103% | viability, T/C (second compound 0.316 µM, first compound 0.001 µM): 93.5% | viability, T/C [13]: 95.1% | viability, T/C [14]: 105% | viability, T/C [15]: 110% | viability, T/C [16]: 90.3% | viability, T/C (second compound 1 µM, first compound 0.000316 µM): 101% | viability, T/C (second compound 1 µM, first compound 0.001 µM): 98.8% | viability, T/C [19]: 98.5% | viability, T/C [20]: 101% | viability, T/C [21]: 101% | viability, T/C [22]: 75.5% | viability, T/C (second compound 3.16 µM, first compound 0.000316 µM): 95.3% | viability, T/C (second compound 3.16 µM, first compound 0.001 µM): 101% | viability, T/C [25]: 99.4% | viability, T/C [26]: 100% | viability, T/C [27]: 101% | viability, T/C [28]: 64.9% | viability, T/C (second compound 10 µM, first compound 0.000316 µM): 106% | viability, T/C (second compound 10 µM, first compound 0.001 µM): 99.5% | viability, T/C [31]: 96.2% | viability, T/C [32]: 100% | viability, T/C [33]: 93.5% | viability, T/C [34]: 58.8%

CCc1c2c(nc3ccc(O)cc13)-c1cc3c(c(=O)n1C2)COC(=O)[C@]3(O)CC + COC1C(OC(N)=O)C(O)C(Oc2ccc3c(O)c(NC(=O)c4ccc(O)c(CC=C(C)C)c4)c(=O)oc3c2C)OC1(C)C
IC50 (second compound 0.0316 µM): 93.7 nM | IC50 (second compound 0.1 µM): 87.2 nM | IC50 (second compound 0.316 µM): 92.6 nM | IC50 (second compound 1 µM): 72.1 nM | IC50 (second compound 3.16 µM): 49.3 nM | IC50 (second compound 10 µM): 30.7 nM | viability, T/C [1]: 110% | viability, T/C [2]: 87.6% | viability, T/C [3]: 70.6% | viability, T/C [4]: 49.2% | viability, T/C [5]: 30.4% | viability, T/C [6]: 20.2% | viability, T/C [7]: 103% | viability, T/C [8]: 95.4% | viability, T/C [9]: 73.5% | viability, T/C [10]: 45.8% | viability, T/C [11]: 30.1% | viability, T/C [12]: 19.2% | viability, T/C [13]: 107% | viability, T/C [14]: 95.7% | viability, T/C [15]: 67.8% | viability, T/C [16]: 50% | viability, T/C [17]: 30.8% | viability, T/C [18]: 18.5% | viability, T/C [19]: 103% | viability, T/C [20]: 81.3% | viability, T/C [21]: 60.7% | viability, T/C [22]: 47.9% | viability, T/C [23]: 28.9% | viability, T/C [24]: 19.6% | viability, T/C [25]: 106% | viability, T/C [26]: 87.2% | viability, T/C [27]: 59.7% | viability, T/C [28]: 35.1% | viability, T/C [29]: 24.1% | viability, T/C [30]: 20.6% | viability, T/C [31]: 86.7% | viability, T/C [32]: 65.5% | viability, T/C [33]: 53.7% | viability, T/C [34]: 32.5% | viability, T/C [35]: 21.7% | viability, T/C [36]: 21.1%
